In US11820822B2, “Methods for sensitizing cancer cells to T cell-mediated killing by modulating molecular pathways” (DANA-FARBER CANCER INSTITUTE, INC., priority 2017, dated 2023):

Experiments:
[1] = system: B16F10-Cas9 cells co-cultured with Pmel-1 T cells; assay: Genome-scale CRISPR-Cas9 screen, selection with Pmel-1 T cells; assay type: cell-based, mouse; settings: Table 3; B16F10-Cas9 cells pre-treated with IFNγ, co-cultured with Pmel-1 T cells 1:1 for three days; negative = depleted, positive = enriched
[2] = system: B16F10-Cas9 cells pulsed with SIINFEKL peptide, co-cultured with OT-I T cells; assay: Genome-scale CRISPR-Cas9 screen, selection with OT-I T cells; assay type: cell-based, mouse; settings: Table 3; B16F10-Cas9 cells pulsed with SIINFEKL, co-cultured with OT-I T cells 1:1 for one day; negative = depleted, positive = enriched

Row | Sequence | Pmel+ (sgRNA Log(2) fold change, Pmel-1 selection versus control T cells) [1] | OT1 (sgRNA Log(2) fold change, OT-I selection versus control T cells) [2]
1 | GTGAGCCTGAGGAACCTGCT (chemistry not fully specified) | 3.08 | 1.01
2 | GTTTCTGGCATCCAAAGTAG (chemistry not fully specified) | 0.80 | -2.50
3 | TAAAAGTCCCTCCCTCAAAG (chemistry not fully specified) | 0.00 | -2.56
4 | TAAGCGTTGTTGACTACATG (chemistry not fully specified) | 0.00 | -3.02
5 | TAATTGCTGAGAATGTACTC (chemistry not fully specified) | 0.00 | -2.54
6 | TACTGATCATAAACGAACCA (chemistry not fully specified) | 0.25 | -3.34
7 | TAGCCGACAGAGATGTACCG (chemistry not fully specified) | 3.52 | 0.05
8 | TATACCAATACGCAAATACC (chemistry not fully specified) | 4.34 | 4.07
9 | TATGGAGCGGTGTATGCCCG (chemistry not fully specified) | 1.27 | -3.33
10 | TATGTGGAGCATAACCGGAG (chemistry not fully specified) | 3.80 | 2.95
11 | TCACTGCGTACGCGTCACTG (chemistry not fully specified) | 0.81 | -3.44
12 | TCAGCAACTGAGAACTCACT (chemistry not fully specified) | -2.37 | -1.37
13 | TCAGGATGCTGTGATAAGCG (chemistry not fully specified) | 2.98 | -0.67
14 | TCATAGCCAGAGCATACTCT (chemistry not fully specified) | -1.33 | -3.24
15 | TCATCTTCGGAGGGCTCAAG (chemistry not fully specified) | 2.75 | 0.18
16 | TCCCTTTGATGTGTTCCACG (chemistry not fully specified) | 4.23 | 3.40
17 | TCCGAACCGAATCATCACTG (chemistry not fully specified) | 10.23 | 3.59
18 | TCGGCTTCCCATTCTCCGGT (chemistry not fully specified) | 4.33 | 5.48
19 | TCTGTTGAAAGAGCGCCAAA (chemistry not fully specified) | -3.36 | -0.71
